Experimental data as given in PubChem BioAssay (NCI).
“And” between values parts separate entries of the source, which are not always exact repeats. Equal entries are not always repeated.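 Method: 48-hour compound exposure of cells in 96-well plates, five concentrations, linear interpolation of endpoints. GI50: concentration for 50% inhibition of growth. At the TGI there is no net growth.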

Assays:
Assay in all cases: DTP human tumour cell line panel, 48 h
KM12 colon = system: KM12 colon
U251 CNS = system: U251 CNS
ACHN renal = system: ACHN renal
SW-620 colon = system: SW-620 colon
K-562 leukemia = system: K-562 leukemia
HCT-15 colon = system: HCT-15 colon
OVCAR-8 ovarian = system: OVCAR-8 ovarian
CAKI-1 renal = system: CAKI-1 renal
SNB-19 CNS = system: SNB-19 CNS
NCI-H226 lung = system: NCI-H226 lung

Row | Structure (SMILES) | GI50 (KM12 colon) | TGI (KM12 colon) | GI50 (U251 CNS) | TGI (U251 CNS) | GI50 (ACHN renal) | TGI (ACHN renal) | GI50 (SW-620 colon) | TGI (SW-620 colon) | GI50 (K-562 leukemia) | TGI (K-562 leukemia) | GI50 (HCT-15 colon) | TGI (HCT-15 colon) | GI50 (OVCAR-8 ovarian) | TGI (OVCAR-8 ovarian) | GI50 (CAKI-1 renal) | TGI (CAKI-1 renal) | GI50 (SNB-19 CNS) | TGI (SNB-19 CNS) | GI50 (NCI-H226 lung) | TGI (NCI-H226 lung)
1 | COc1cc(-c2nn(-c3ccc(NC(=O)c4ccc(Cl)c(C(F)(F)F)c4)cc3)cc2-c2ccncc2)ccc1Cl | 1.5 µM | 4.84 µM | 2.08 µM | 56.7 µM | 3.35 µM | > 100 µM | 3.31 µM | > 100 µM | 1.81 µM | 5.67 µM | 1.42 µM | 4.21 µM | 5.43 µM | > 100 µM | 1.71 µM | 7.29 µM | 4.55 µM | > 100 µM | 5.31 µM | > 100 µM
2 | CN(C)CC[N+]1=Nc2cccc3cccc(c23)N1 |  | > 100 µM |  | > 100 µM |  | > 100 µM |  | > 58 µM |  | > 63.4 µM |  | > 100 µM |  | > 100 µM |  | > 100 µM |  | > 100 µM |  | > 100 µM
3 | COc1ccc2c(C3=C(c4cn(C)c5ccccc45)C(=O)NC3=O)cn(C)c2c1 | 0.111 µM | 7.24 µM | 0.102 µM | > 25 µM | 0.254 µM | > 25 µM | 0.104 µM | > 25 µM | 0.101 µM | > 25 µM | 0.116 µM | > 25 µM | 0.15 µM | > 25 µM | 0.0941 µM | > 25 µM | > 25 µM | > 25 µM | 2.63 µM | > 25 µM
4 | Cc1ccc(N=Nc2ccc(N(CCC#N)CCC#N)cc2C)c(Br)c1 |  | 55.8 µM |  | > 100 µM |  | > 100 µM |  | > 100 µM |  | > 100 µM |  | > 100 µM |  | > 100 µM |  | 24.6 µM |  | > 100 µM |  | 61.5 µM
5 | NC(=O)c1sc(-n2cnc3ccccc32)cc1OCc1ccccc1Br | 1.26 µM | > 25 µM | 4.44 µM | > 25 µM | 15.8 µM | > 25 µM | 1.17 µM | > 25 µM | 6.71 µM | > 25 µM | 6.95 µM | > 25 µM | 4.83 µM | 23.5 µM | 14.2 µM | > 25 µM | 11.6 µM | > 25 µM | 11.9 µM | > 25 µM
6 | O=C(CC1(O)C(=O)Nc2c(Cl)cc(Cl)cc21)c1ccc(Br)cc1Br (stereo not drawn) |  | 27.9 µM |  | 28.5 µM |  | 27.1 µM |  | 10.7 µM |  | 9 µM |  | 22.2 µM |  | 17.6 µM |  | 16.2 µM |  | 41 µM |  | 34.8 µM
7 | CO[C@H](C(=O)[C@@H](O)[C@@H](C)O)[C@@H]1Cc2cc3cc(O[C@H]4C[C@@H](O[C@H]5C[C@@H](O)[C@H](O)C(C)O5)[C@H](O)C(C)O4)c(C)c(O)c3c(O)c2C(=O)[C@H]1O[C@H]1C[C@@H](O[C@H]2C[C@@H](O[C@H]3C[C@](C)(O)C(=O)C(C)O3)[C@@H](O)C(C)O2)[C@H](O)C(C)O1 (stereo partly drawn) | 0.0672 µM | 6.67 µM | 0.031 µM | > 33.2 µM | 0.154 µM | 1.55 µM | 0.075 µM | > 33.2 µM | 0.1 µM | > 33.2 µM | 0.889 µM | > 33.2 µM | 0.0991 µM | > 33.2 µM | 0.924 µM | > 33.2 µM | 0.0715 µM | > 33.2 µM | 0.0457 µM | 0.3 µM
8 | COC(=O)[C@@H]1[C@H](O)[C@H](C)[C@H](O)[C@@](C)(O)/C=C\C=C(C)C(=O)Nc2c(C)c(OC(C)=O)c3c(c2O)C(=O)C(C)=C2OCOC(=C23)C(C)=C[C@@](C)(O)[C@H](O)[C@@H](C)[C@H]1OC(C)=O | > 66.9 µM | > 100 µM | > 66.9 µM | > 100 µM and > 66.9 µM and 62.8 µM | > 66.9 µM | > 100 µM |  | > 100 µM and 21 µM | 32.4 µM | > 100 µM and 66.9 µM | 42.5 µM | > 100 µM and 66.9 µM | 42.3 µM | > 100 µM and 66.9 µM | > 66.9 µM | > 100 µM | > 66.9 µM | > 100 µM |  | > 100 µM
9 | COC1=CC(c2ccc[nH]2)=N/C1=C\c1[nH]c(C)c(C(=O)OC(C)C)c1C | 0.0439 µM | 1.8 µM | 0.0355 µM | 0.82 µM | 0.0456 µM | 1.2 µM | 0.0336 µM | 1.44 µM | 0.0674 µM | 1.14 µM | 0.026 µM | 1.14 µM | 0.0397 µM | 1.04 µM | 0.0158 µM | 0.236 µM | 0.866 µM | 34.9 µM | 0.0795 µM | 1.28 µM
10 | Cc1nc2ccccc2c(N)c1-c1cc(C)c2c(C)nc3ccccc3c2n1 | 0.785 µM | 2.15 µM | 0.288 µM | 0.959 µM | 0.237 µM | 0.599 µM | 0.183 µM | 0.435 µM | 0.256 µM | > 100 µM | 0.216 µM | 0.562 µM | 1.41 µM | 2.95 µM | 1.55 µM | 2.94 µM | 1.59 µM | 3.39 µM | 1.44 µM | 2.94 µM
11 | O=C1C(=O)N(c2ccc(Cl)cc2Cl)C(=O)C(=O)C1c1nc2ccccc2s1 |  | > 100 µM |  | > 100 µM |  | > 100 µM |  | > 100 µM |  | > 100 µM |  | > 100 µM |  | > 100 µM |  | > 100 µM |  | > 100 µM |  | > 100 µM
12 | COC1CCC(N2C(=O)CNc3ncc(-c4ccc(C(C)(C)O)nc4)nc32)CC1 (stereo not drawn) | 1.2 µM and 0.302 µM | > 40.8 µM | 1.41 µM and 1.06 µM | > 33.4 µM | 1.07 µM and 0.205 µM | > 100 µM | 1.78 µM and 0.935 µM | > 37.5 µM | 2.28 µM and 0.77 µM | > 100 µM | 0.732 µM and 0.293 µM | > 36.1 µM | 1.27 µM and 0.436 µM | > 35.2 µM | 0.412 µM | > 6.75 µM | 2.02 µM and 1.57 µM | > 36.2 µM | 0.305 µM and 0.226 µM | > 41.8 µM
13 | NC(=O)c1cccc2cn(-c3ccc([C@@H]4CCCNC4)cc3)nc12 | 15.7 µM | 30.6 µM | 12.6 µM | 29 µM | 12.4 µM | 25.9 µM | 10.4 µM | 51.3 µM | 14.1 µM | 36.8 µM | 14.8 µM | 45.5 µM | 12.4 µM | 38.5 µM | 5.77 µM | 20.2 µM | 17.1 µM | > 92.7 µM | 14.4 µM | 30.1 µM
14 | C=C1C(=O)C23CC1CCC2C12CO[C@@H]4OCC(C)(CC[C@@H]1OC3=O)C42 (stereo partly drawn) |  | 17.3 µM |  | 27.4 µM |  | 9.4 µM |  | 7.04 µM |  | > 100 µM |  | 7.88 µM |  | 9.78 µM |  | 5.33 µM |  | 20.3 µM |  | 38.4 µM
